{"source": "patent US20220397580A1", "about": "“METHOD OF DETECTING A NEURODEGENERATIVE DISEASE” (NATIONAL UNIVERSITY OF SINGAPORE, priority 2019, published 2022)", "system": "exosomes derived from neuronal cells (SH-SY5Y)", "test": "Exosome-Aβ association kinetics on APEX (SPR) sensor functionalized with protein aggregates", "type": "binding, Human", "details": "relative to BSA controls", "method": "Characterization of exosome-A13 association. The prepared protein aggregates (Aβ42 and BSA control) were used for surface functionalization onto the APEX sensors, via EDC/NHS coupling as previously described. Unbound protein aggregates were washed away with PBS. The amount of protein conjugated was measured from the resultant transmission spectral shifts. This information was used to determine the number of conjugated protein aggregates and their associated total protein surface area for exosome binding (see below for detailed information), so as to normalize for binding affinities. Following surface functionalization with the protein aggregates, exosomes ([…]) were introduced onto the sensors. Spectral changes were measured every 3 s for a total duration of 480 s to construct real-time kinetics sensorgrams. Exosome association kinetics and binding affinities were determined for different-sized protein aggregates.\nTo account for protein aggregate size differences as well as SPR-associated exponential decay of sensitivity (with increasing distance from the sensing surface), the following equation was used\nS=E×∫0^2rπ[r^2−(r−z)^2]×e^(−2z/l^d^)dz […]\nAll protein aggregates were approximated as spheres, as supported by transmission electron micrographs (FIG. 3b, left) and their r determined from dynamic light scattering analysis. […]", "data": [{"substance": "bigger Aβ42 aggregates: Aβ42 protein (rPeptide) incubated with agitation for 1 h to induce further aggregation, filtered through 0.2-μm membrane", "values": [{"measurement": "KD(small)/KD(big)", "setting": "exosome binding data normalized to aggregate surface area", "value": 5.27}, {"measurement": "binding affinity of the vesicles compared to the smaller Aβ42 aggregates", "setting": "neuron-derived exosomes, normalized to aggregate surface area", "value": "> 5", "unit": "fold"}]}]}
